From US20230366033A1, “METHODS FOR TREATING CANCERS WITH INHIBITORS TARGETING THE ROLE OF GRB2 IN DNA REPAIR” (Board of Regents, The University of Texas System, priority 2020, published 2023)
Like-named read-outs stand apart in the source and are kept apart here. Values belong to the molecule of their own block, whether it stands above or below them. Where no end group is shown, it is not given here. [ ]: non-standard residue; d: D form. pY = N[C@@H](Cc1ccc(OP(=O)(O)O)cc1)C(=O)O

Columns and labels:
K109R GRB2 mutant = molecular target: T1, K109R GRB2 mutant (Homo sapiens, UniProt P62993, K109R); assay: Microscale thermophoresis (MST) binding of synthetic peptides; settings: 100 nM Atto488-labelled K109R GRB2
T1 construct: 6xHis; made in house
Description: (§1) FIGS. 3A-3I. Identification of GRB2 binding interfaces on MRE11, RPA70 and H2AX. (FIG. 3A) Schematic DDR binding-motifs (circles) on GRB2 within its domain architecture. Approximate non-canonical binding motifs are shown. (FIG. 3B) GST-SH domains pulldown of HEK293T cell-extracts followed by immunoblotting with indicated antibodies. (FIG. 3C) GST pulldown of bacterially expressed and purified human MRE11 with indicated GRB2 SH-domains. (FIG. 3D) OB1 fold binding motifs sequence alignment (top). MST isotherms of 50 nM Atto488-labelled RPA70 N-terminal domain (residue 1-120) binding to titrating concentrations (2 nM to 20 μM) of GRB2 or GRB2-derived OB1 peptide. The binding affinity (Kd) is shown. (FIG. 3E) Strep-Tactin precipitation of WT and DF/AA mutant from HEK293T cells that were either untreated (normal) or immediately after IR treated (5 Gy) and lysed, followed by western blot detection with the indicated antibodies. (FIG. 3F) MST-binding isotherms of an Atto488-labelled GRB2-SH2 domain (100 nM) binding to titrating concentrations (30 nM to 500 μM) of synthetic peptides derived from indicated proteins. (FIG. 3G) MST-isotherms of 100 nM Atto488-labelled K109R GRB2 mutant binding to titrating concentrations (30 nM to 200 μM) of synthetic peptides derived from the indicated proteins. Each isotherm was derived from the raw data and fitted according to the law of mass action to yield an apparent Kd. (FIG. 3H) Molecular docking overlay model of GRB2-SH2 domain with (PDB: 3wa4) and without (PDB: 1gri) showing S88 and S90 movement ˜4.7 Å when bound to phosphotyrosine peptide (PDB: 3wa4). K109R shown modeled, which could engage with the loop containing S88 and S90 residues. (FIG. 3I) Docking of pH2AX, MRE11 and pEGFR peptide into GRB2 SH2 domain pocket. The relative docking orientation of each peptide is shown.
(§2) Microscale thermophoresis. The MST method has been described in detail elsewhere (Seidel et al., 2013). The Kd values were measured using the Monolith NT.115 system (Nano Temper). Proteins were fluorescently labeled with Atto 488 according to the manufacturer's protocol. Labeling efficiency was determined to be 1:1 (protein:dye) by measuring the absorbance at 280 and 488 nm. A solution of peptides or proteins in 0.01 M HEPES (pH 7.4), 0.15 M NaCl and 0.005% v/v Surfactant P20 was serially diluted, typically from about 100 μM to 30 nM in the presence of 100 nM labeled protein. The samples were loaded into silica capillaries (Polymicro Technologies) after incubation at room temperature for 15 min. Measurements were performed at 22° C. using 20% LED power and 40% IR-laser power. Measurements were also carried out using 20% and 60% IR-laser power for comparison. Data analyses were performed using Nano Temper Analysis software using the Kd curve fitting function. Raw data were exported and fitting curves were generated using Prism 8 (GraphPad Software) for presentation.

GRB2-SH2 domain = molecular target: T2, GRB2-SH2 domain (Homo sapiens, UniProt P62993); assay: as above
T2 construct: 6xHis; made in house
Description: as §1, §2

[1] = molecular target: T3, human MRE11 (residue 1-411) (Homo sapiens, UniProt P49959); assay: Microscale thermophoresis (MST) binding of GRB2 WT and mutants; settings: bacterially expressed proteins lacking ubiquitination
T3 construct: Human MRE11 core (residues 1-411) purification was described previously; 6xHis; made in house
T3 sequence (P49959 1-411): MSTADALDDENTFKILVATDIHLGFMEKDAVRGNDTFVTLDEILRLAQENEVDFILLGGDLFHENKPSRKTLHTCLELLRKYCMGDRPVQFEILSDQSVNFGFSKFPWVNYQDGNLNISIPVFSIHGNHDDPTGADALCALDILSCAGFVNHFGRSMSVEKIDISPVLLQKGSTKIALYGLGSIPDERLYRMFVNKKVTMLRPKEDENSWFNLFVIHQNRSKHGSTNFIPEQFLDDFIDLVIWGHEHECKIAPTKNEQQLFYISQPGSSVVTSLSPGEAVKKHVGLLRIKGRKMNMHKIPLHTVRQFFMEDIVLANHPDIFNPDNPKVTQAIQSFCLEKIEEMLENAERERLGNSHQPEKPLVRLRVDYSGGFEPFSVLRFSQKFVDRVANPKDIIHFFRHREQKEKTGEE
Description: FIGS. 2A-2H. Interactions of nGRB2 with DNA damage response factors. (FIG. 2A) Mass spectrometry identifies nuclear GRB2-associated proteins that are involved in DNA damage repair. Mean of coverage and unique peptides from three independent data sets are shown. (FIG. 2B) Strep-Tactin precipitation of Strep-GRB2 precipitated from HEK293T cells followed by western blotting with indicated antibodies. (FIG. 2C) GRB2 preferentially co-precipitate MRE11 without RAD50 or NBS1. Strep-GRB2 expressed HEK293T cells treated with or without 5 Gy IR were lysed immediately followed by Strep-Tactin precipitation and immunoblotting with indicated antibodies. (FIG. 2D) Immunoprecipitation of NBS1. HEK293T cells were co-transfected with RFP-GRB2 and GFP-NBS1 or GFP alone as control. Total cell lysates were precipitated with GFP-trap beads and immunoblotted with indicated antibodies. (FIG. 2E) Immunoprecipitation of RAD50. HEK293T cells expressing Flag-RAD50 or Flag-Ctrl were co-transfected with RFP-GRB2 for 24 h. Unperturbed cells were immunoprecipitated with Flag-M2 beads and immunoblotted with indicated antibodies. β-Actin was used as a loading control. (FIG. 2F) Immunoprecipitation of MRE11. […]
(§3) Microscale thermophoresis. […] The Kd values were measured using the Monolith NT.115 system (Nano Temper). […] Labeling efficiency was determined to be 1:1 (protein:dye) by measuring the absorbance at 280 and 488 nm. […]

[2] = molecular target: T4, RPA70 N-terminal domain (residue 1-120) (Homo sapiens, UniProt P27694); assay: Microscale thermophoresis (MST) binding; settings: 50 nM Atto488-labelled RPA70N
T4 construct: 6xHis; made in house
Description: FIGS. 3A-3I. Identification of GRB2 binding interfaces on MRE11, RPA70 and H2AX. (FIG. 3A) Schematic DDR binding-motifs (circles) on GRB2 within its domain architecture. Approximate non-canonical binding motifs are shown. (FIG. 3B) GST-SH domains pulldown of HEK293T cell-extracts followed by immunoblotting with indicated antibodies. (FIG. 3C) GST pulldown of bacterially expressed and purified human MRE11 with indicated GRB2 SH-domains. (FIG. 3D) OB1 fold binding motifs sequence alignment (top). MST isotherms of 50 nM Atto488-labelled RPA70 N-terminal domain (residue 1-120) binding to titrating concentrations (2 nM to 20 μM) of GRB2 or GRB2-derived OB1 peptide. The binding affinity (Kd) is shown. (FIG. 3E) Strep-Tactin precipitation of WT and DF/AA mutant from HEK293T cells that were either untreated (normal) or immediately after IR treated (5 Gy) and lysed, followed by western blot detection with the indicated antibodies. (FIG. 3F) MST-binding isotherms of an Atto488-labelled GRB2-SH2 domain (100 nM) binding to titrating concentrations (30 nM to 500 μM) of synthetic peptides derived from indicated proteins. […]
as §3

T2 sequence (P62993 60-152 limits assumed): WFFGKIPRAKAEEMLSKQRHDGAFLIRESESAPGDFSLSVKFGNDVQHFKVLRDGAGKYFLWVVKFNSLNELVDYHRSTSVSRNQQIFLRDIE
T1 sequence (P62993 whole entry K109R): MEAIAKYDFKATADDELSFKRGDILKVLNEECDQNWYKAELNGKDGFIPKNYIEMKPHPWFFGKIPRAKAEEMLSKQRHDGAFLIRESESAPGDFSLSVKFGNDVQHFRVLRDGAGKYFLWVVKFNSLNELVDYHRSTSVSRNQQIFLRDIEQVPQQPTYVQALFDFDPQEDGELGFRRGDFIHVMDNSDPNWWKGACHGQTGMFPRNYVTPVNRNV
T4 sequence (P27694 1-120): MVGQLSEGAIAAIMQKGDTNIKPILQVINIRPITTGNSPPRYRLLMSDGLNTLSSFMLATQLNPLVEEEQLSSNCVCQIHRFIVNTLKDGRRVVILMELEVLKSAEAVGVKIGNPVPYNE

Molecule: CC(C)C[C@H](NC(=O)[C@H](CC(N)=O)NC(=O)CNC(=O)[C@H](CC(=O)O)NC(=O)[C@H](CCC(N)=O)NC(=O)[C@H](Cc1ccc(O)cc1)NC(=O)[C@H](CC(N)=O)NC(=O)[C@@H](NC(=O)[C@H](Cc1c[nH]c2ccccc12)NC(=O)[C@@H]1CCCN1)C(C)C)C(=O)N[C@@H](CC(N)=O)C(=O)O
binding affinity to K109R GRB2 relative to WT GRB2 (K109R GRB2 mutant): at least two orders of magnitude weaker

Molecule: CC[C@H](C)[C@H](NC(=O)[C@H](Cc1ccc(OP(=O)(O)O)cc1)NC(=O)[C@H](CCC(=O)O)NC(=O)[C@@H]1CCCN1C(=O)[C@@H](NC(=O)[C@@H]1CCCN1C(=O)[C@H](CC(C)C)NC(=O)[C@@H](N)Cc1ccccc1)C(C)C)C(=O)N[C@@H](CC(N)=O)C(=O)N[C@@H](CCC(N)=O)C(=O)N[C@@H](CO)C(=O)N[C@H](C(=O)N1CCC[C@H]1C(=O)N[C@@H](CCCCN)C(=O)N[C@@H](CCCNC(=N)N)C(=O)O)C(C)C [pEGFR]
binding affinity to K109R GRB2 relative to WT GRB2 (K109R GRB2 mutant): comparable to that of ^WTGRB2 | Kd (GRB2-SH2 domain): 7.2 ± 2 µM

Molecule: K109A mutant: ubiquitination-defective GRB2 K109A mutant, bacterially expressed
dissociation constant (Kd), interaction with MRE11 [1]: intact MRE11 binding

Molecule: K109R mutant: GRB2 lysine-to-arginine mutant at K109, bacterially expressed
dissociation constant (Kd), interaction with MRE11 [1]: no binding

Molecule: KYDFKATADDELSFKRG
binding to RPA70N [2]: interacted with RPA70N

Other lines, results leading:

binding affinity to K109R GRB2 relative to WT GRB2 (K109R GRB2 mutant): comparable to that of ^WTGRB2 | Kd (GRB2-SH2 domain; MST, 100 nM Atto488-labelled GRB2-SH2 domain, read-out: Kd, binding to GRB2-SH2 domain): 2.8 ± 3.3 µM
Molecule: C[C@H](NC(=O)[C@H](CCCCN)NC(=O)[C@H](CCCCN)NC(=O)CNC(=O)CNC(=O)[C@H](CO)NC(=O)[C@@H]1CCCN1)C(=O)N[C@H](C(=O)N[C@@H](CCC(N)=O)C(=O)N[C@@H](C)C(=O)N[C@@H](COP(=O)(O)O)C(=O)N[C@@H](CCC(N)=O)C(=O)N[C@@H](CCC(=O)O)C(=O)N[C@@H](Cc1ccc(OP(=O)(O)O)cc1)C(=O)O)[C@@H](C)O [pH2AX peptide]

effect of tyrosine phosphorylation on binding affinity for GRB2-SH2 domain (GRB2-SH2 domain; MST): limited impact on its binding affinity
Molecule: WVNpYQDGNLN (WVN[pY]QDGNLN)

binding to RPA70N [2]: direct binding
Molecule: non-ubiquitinated GRB2: bacterially expressed and purified wild-type growth factor receptor-bound protein 2
